According to patent US9975906B2, “Tricyclic heterocycle derivatives having HIV replication inhibitory effect” (Shionogi & Co., Ltd., priority 2014, dated 2018):

Assays:
HIV (HTLV-IIIB strain) = assay: HIV Replication Inhibition Assay; assay type: cell-based; conditions: Human immunodeficiency virus 1, MT4, 96 h, MT-4 cells, cultured four days, MTT, concentration at which cell cytotoxicity by virus is inhibited 50%
Experimental: HIV (HTLV-IIIB strain) persistent infected human T cell strain Molt-4 clone 8 was cultured in 10% Fetal Bovine Serum-containing RPMI-1640 medium and the supernatant was filtered, then the virus titer was measured and the solution was stored at −80° C. Each anti-human immunodeficiency virus active substance was diluted with the above cultured medium to the designated concentration, which was dispensed into 96 well micro plate by 50 μL. Next, a MT-4 cell suspended liquid was dispensed by 100 μL (2.5×10^4 cells), then the above HIV-containing supernatant diluted with the above cultured medium was added thereto by 50 μl (60 pfu (plaque forming unit)).
The obtained mixture was cultured at 37° C. in CO2 incubator for four days, then 3-(4,5-dimethylthiazole-2-yl)-2,5-diphenyltetrazolynium bromide (MTT) 5 mg/mL in PBS was added to each well by 30 μL, followed by 1 hr-cultivation. In this step, as formazan was precipitated by reduction of MTT in living cells, the cell supernatant was removed from all was by 150 μL, then a 150 μL of solution (10% Triton X-100 and 0.4% (v/v)-HCl containing isopropanol) was added thereto, followed by shaking with a plate mixer, to elute formazan. The formazan was measured with a microreader at OD: 560 nm and 690 nm (reference wavelength) and the result was compared with the reference. EC50 means the compound concentration at which cell cytotoxicity by virus is inhibited 50%.

Solubility Test = assay type: physicochemical; conditions: fassgf or other biorelevant, kinetic from dmso stock; 1% DMSO addition, artificial intestinal juice pH 6.8, 16 hours at 25° C.
Experimental: The solubility of the compound of the present invention was determined under 1% DMSO addition conditions. A 10 mmol/L solution of the compound was prepared with DMSO, and 6 μL of the solution was added to 594 μL of an artificial intestinal juice (: water and a 118 mL solution of 0.2 mol/L NaOH reagent are added to 250 mL of 0.2 mol/L potassium dihydrogen phosphate reagent to reach 1000 mL) with a pH of 6.8. The mixture was left standing for 16 hours at 25° C., and the mixture was vacuum-filtered. The filtrate was two-fold diluted with methanol/water=1/1(v/v), and the compound concentration in the filtrate was measured with HPLC or LC/MS/MS by the absolute calibration method.

[1] = target: T1, human ether-a-go-go related gene (hERG) channel (Homo sapiens, UniProt Q12809); assay: hERG Test; assay type: cell-based; conditions: compound concentration 5 μmol/L, HEK293 cells expressing hERG, patch clamp
T1 construct: expressed in transfected cells; host or cells: HEK293
Text: For the purpose of assessing risk of an electrocardiogram QT interval prolongation, effects on delayed rectifier K+ current (IKr), which plays an important role in the ventricular repolarization process of the compound of the present invention, was studied using HEK293 cells expressing human ether-a-go-go related gene (hERG) channel.
After a cell was retained at a membrane potential of −80 mV by whole cell patch clamp method using an automated patch clamp system (PatchXpress 7000A, Axon Instruments Inc.), IKr induced by depolarization pulse stimulation at +40 mV for 2 seconds and, further, repolarization pulse stimulation at −50 mV for 2 seconds was recorded. […] From the recording IKr, an absolute value of the tail peak current was measured based on the current value at the resting membrane potential using an analysis software (DataXpress ver. 1, Molecular Devices Corporation). Further, the inhibition relative to the tail peak current before application of the test substance was calculated, and compared with the vehicle-applied group (0.1% dimethyl sulfoxide solution) to access influence of the test substance on IKr. […]

BA Test = assay type: in vivo; conditions: plasma; oral vs intravenous administration, from AUCs, mouse or SD rats
Experimental: Materials and methods for studies an oral absorption (1) Animal: mouse or SD rats are used. (2) Breeding conditions: mouse or SD rats were allowed to freely take solid feed and sterilized tap water. (3) Dose and grouping: orally or intravenously administered at a predetermined dose; grouping is as follows (Dose depends on the compound) Oral administration: 1 to 30 mg/kg (n=2 to 3) Intravenous administration: 0.5 to 10 mg/kg (n=2 to 3) (4) Preparation of dosing solution: for oral administration, in a solution or a suspension state; for intravenous administration, in a solubilized state. (5) Administration method: in oral administration, forcedly administer into ventriculus with oralprobe; in intravenous administration, administer from caudal vein with a needle-equipped syringe. (6) Evaluation items: blood is collected over time, and the plasma concentration of drug is measured by LC/MS/MS. (7) Statistical analysis: regarding the transition of the plasma concentration, the area under the plasma concentration-time curve (AUC) is calculated by non-linear least squares program WinNonlin (Registered trademark), and the bioavailability (BA) is calculated from the AUCs of the oral administration group and intravenous administration group. (Result) Compound No. I-30: 45.2%

T1 sequence (Q12809 whole entry): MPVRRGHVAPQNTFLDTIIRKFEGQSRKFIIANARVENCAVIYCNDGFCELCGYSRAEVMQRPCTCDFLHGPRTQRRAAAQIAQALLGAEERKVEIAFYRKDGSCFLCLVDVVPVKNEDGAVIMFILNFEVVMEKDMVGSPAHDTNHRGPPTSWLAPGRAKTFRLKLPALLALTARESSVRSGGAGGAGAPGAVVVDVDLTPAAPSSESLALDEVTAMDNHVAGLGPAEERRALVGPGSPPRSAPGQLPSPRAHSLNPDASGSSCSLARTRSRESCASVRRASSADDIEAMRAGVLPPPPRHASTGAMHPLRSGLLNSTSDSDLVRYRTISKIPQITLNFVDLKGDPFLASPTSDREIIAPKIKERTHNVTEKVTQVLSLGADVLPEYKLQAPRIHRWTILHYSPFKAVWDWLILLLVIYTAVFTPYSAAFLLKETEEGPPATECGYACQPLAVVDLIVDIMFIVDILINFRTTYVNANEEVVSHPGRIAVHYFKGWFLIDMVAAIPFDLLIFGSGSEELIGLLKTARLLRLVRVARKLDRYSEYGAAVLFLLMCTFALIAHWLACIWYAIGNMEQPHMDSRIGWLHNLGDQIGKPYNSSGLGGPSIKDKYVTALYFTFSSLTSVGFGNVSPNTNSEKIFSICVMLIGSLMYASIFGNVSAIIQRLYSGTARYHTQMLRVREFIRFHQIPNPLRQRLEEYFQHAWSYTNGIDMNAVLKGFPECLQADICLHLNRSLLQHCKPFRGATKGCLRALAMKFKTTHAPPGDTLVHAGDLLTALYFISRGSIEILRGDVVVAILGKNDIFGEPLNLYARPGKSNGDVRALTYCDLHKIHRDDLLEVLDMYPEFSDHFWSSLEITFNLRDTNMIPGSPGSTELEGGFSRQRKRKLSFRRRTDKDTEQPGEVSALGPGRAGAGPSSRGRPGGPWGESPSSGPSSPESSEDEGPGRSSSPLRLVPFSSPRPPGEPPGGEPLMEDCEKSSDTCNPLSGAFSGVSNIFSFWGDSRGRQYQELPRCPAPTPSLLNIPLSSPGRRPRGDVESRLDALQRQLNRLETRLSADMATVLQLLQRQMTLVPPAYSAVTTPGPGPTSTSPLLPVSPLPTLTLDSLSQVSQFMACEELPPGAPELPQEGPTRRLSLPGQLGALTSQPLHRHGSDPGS

Row | Structure (SMILES) | EC50 (HIV (HTLV-IIIB strain)) [nM] | further results
1 | Cc1c(-c2c(C(OC(C)(C)C)C(=O)O)c(C)c3c4c2c(C)cn4CCN3S(C)(=O)=O)ccc2c1CCCO2 (single isomer, unassigned) [Compound I-006] | 14 | 
2 | Cc1ccc(-c2c(C(OC(C)(C)C)C(=O)O)c(C)c3c4c2cc(-c2ccnc(-c5ccc6c(cnn6C)c5)c2)n4CCN3S(C)(=O)=O)cc1 (stereo not shown) [Compound I-008] | 5.9 | 
3 | Cc1ccc(-c2c(C(OC(C)(C)C)C(=O)O)c(C)c3c4c2cc(-c2ccnc(N5CCN(C(C)C)CC5)n2)n4CCN3S(C)(=O)=O)cc1 (stereo not shown) [Compound I-009] | 32 | 
4 | Cc1ccc(-c2c(C(OC(C)(C)C)C(=O)O)c(C)c3c4c2cc(-c2ccnc(Cl)c2)n4CCN3S(C)(=O)=O)cc1 (stereo not shown) [Compound I-010] | 16 | 
5 | Cc1ccc(-c2c([C@H](OC(C)(C)C)C(=O)O)c(C)c3c4c2cc(-c2ccnc(-c5ccc6c(cnn6C)c5)c2)n4CCN3S(C)(=O)=O)cc1 [Compound I-011] | 2.3 | 
6 | CC(=O)N1CCn2c(-c3ccnc(-c4ccc5c(cnn5C)c4)c3)cc3c(-c4ccc(C)cc4)c(C(OC(C)(C)C)C(=O)O)c(C)c1c32 (stereo not shown) [Compound I-012] | 3.7 | 
7 | CC(=O)N1CCn2c(-c3ccnc(-c4ccc5c(cnn5C)c4)c3)cc3c(-c4ccc(C)cc4)c([C@H](OC(C)(C)C)C(=O)O)c(C)c1c32 [Compound I-013] | 3.4 | 
8 | Cc1c(-c2c([C@H](OC(C)(C)C)C(=O)O)c(C)c3c4c2cc(-c2ccnc(-c5ccc6c(cnn6C)c5)c2)n4CCN3S(C)(=O)=O)cc(F)c2c1CCCO2 [Compound I-014] | 1.3 | 
9 | Cc1c([C@H](OC(C)(C)C)C(=O)O)c(C2=CCC(C)(C)CC2)c2cc(-c3ccnc(-c4ccc5c(cnn5C)c4)c3)n3c2c1N(S(C)(=O)=O)CC3 [Compound I-015] | 4 | 
10 | Cc1c([C@H](OC(C)(C)C)C(=O)O)c(-c2ccc(Cl)cc2)c2cc(-c3ccnc(-c4ccc5c(cnn5C)c4)c3)n3c2c1N(S(C)(=O)=O)CC3 [Compound I-016] | 3.9 | 
11 | Cc1ccc(-c2c([C@H](OC(C)(C)C)C(=O)O)c(C)c3c4c2cc(-c2ccnc(N5CCN(C(C)C)CC5)c2)n4CCN3S(C)(=O)=O)cc1 [Compound I-017] | 9.1 | solubility at 16 h (Solubility Test): > 50 µM
12 | CC(=O)N1CCn2c(-c3ccnc(-c4ccc5c(cnn5C)c4)c3)cc3c(-c4cc(F)c5c(c4C)CCCO5)c([C@H](OC(C)(C)C)C(=O)O)c(C)c1c32 [Compound I-018] | 1.1 | 
13 | Cc1ccc(-c2c([C@H](OC(C)(C)C)C(=O)O)c(C)c3c4c2cc(-c2ccnc(-c5ccc6c(cnn6C)c5)c2)n4CC(=O)N3)cc1 [Compound I-019] | 6 | 
14 | Cc1ccc(-c2c([C@H](OC(C)(C)C)C(=O)O)c(C)c3c4c2cc(-c2ccnc(-c5ccc6c(cnn6C)c5)c2)n4CC(=O)N3C)cc1 [Compound I-020] | 3.6 | 
15 | Cc1ccc(-c2c([C@H](OC(C)(C)C)C(=O)O)c(C)c3c4c2cc(-c2ccnc(-c5ccc6c(cnn6C)c5)c2)n4CCN3C(=O)CN(C)C)cc1 [Compound I-021] | 3.8 | 
16 | Cc1c(-c2c([C@H](OC(C)(C)C)C(=O)O)c(C)c3c4c2cc(-c2ccnc(-c5ccc6c(cnn6C)c5)c2)n4CCN3S(C)(=O)=O)ccc2c1NCCO2 [Compound I-022] | 4 | 

Row | Structure (SMILES) | EC50 (HIV (HTLV-IIIB strain)) [nM] | further results
17 | Cc1ccc(-c2c([C@H](OC(C)(C)C)C(=O)O)c(C)c3c4c2cc(-c2ccnc(-c5ccc6c(cnn6C)c5)c2)n4CC(C)N3S(C)(=O)=O)cc1 (stereo partly shown) [Compound I-023] | 0.82 | 
18 | Cc1ccc(-c2c([C@H](OC(C)(C)C)C(=O)O)c(C)c3c4c2cc(C(=O)N2CCC(c5ccccc5)CC2)n4CCN3S(C)(=O)=O)cc1 [Compound I-024] | 4.2 | 
19 | Cc1ccc(-c2c([C@H](OC(C)(C)C)C(=O)O)c(C)c3c4c2cc(-c2ccnc(-c5ccc6c(cnn6C)c5)c2)n4CS(=O)(=O)N3)cc1 [Compound I-025] | 89 | 
20 | CC(=O)N1CCn2c(-c3ccnc(-c4ccc5c(cnn5C)c4)c3)cc3c(C4=CCC(C)(C)CC4)c([C@H](OC(C)(C)C)C(=O)O)c(C)c1c32 [Compound I-026] | 3.7 | 
21 | CC(=O)N1CCn2c(-c3ccnc(-c4ccc5c(cnn5C)c4)c3)cc3c(-c4ccc5c(c4C)NCCO5)c([C@H](OC(C)(C)C)C(=O)O)c(C)c1c32 [Compound I-027] | 1.7 | 
22 | CC(=O)N1CCn2c(-c3ccnc(-c4ccc5c(cnn5C)c4)c3)cc3c(-c4ccc(Cl)cc4)c([C@H](OC(C)(C)C)C(=O)O)c(C)c1c32 [Compound I-028] | 3.3 | 
23 | Cc1ccc(-c2c([C@H](OC(C)(C)C)C(=O)O)c(C)c3c4c2cc(-c2ccnc(-c5ccc6c(cnn6C)c5)c2)n4CS(=O)(=O)N3C)cc1 [Compound I-029] | 2.4 | 
24 | Cc1ccc(-c2c([C@H](OC(C)(C)C)C(=O)O)c(C)c3c4c2cc(-c2ccnc(-c5ccc6c(cnn6C)c5)c2)n4CCN3C)cc1 [Compound I-030] | 1.9 | inhibition ratio (IKr tail peak current) [1]: 11.7%; bioavailability (BA Test): 45.2%
25 | Cc1ccc(-c2c([C@H](OC(C)(C)C)C(=O)O)c(C)c3c4c2cc(C(=O)NCCC(C)(C)C)n4CCN3S(C)(=O)=O)cc1 [Compound I-031] | 2.9 | 
26 | Cc1ccc(-c2c([C@H](OC(C)(C)C)C(=O)O)c(C)c3c4c2cc(C(=O)NCc2ccccc2)n4CCN3S(C)(=O)=O)cc1 [Compound I-032] | 5.2 | 
27 | Cc1ccc(-c2c([C@H](OC(C)(C)C)C(=O)O)c(C)c3c4c2cc(C(=O)NCCC(C)(C)C)n4CCN3C)cc1 [Compound I-035] | 5.2 | 
28 | Cc1ccc(-c2c([C@H](OC(C)(C)C)C(=O)O)c(C)c3c4c2cc(-c2nnc(-c5ccc6c(cnn6C)c5)o2)n4CCN3C)cc1 [Compound I-037] | 0.4 | 
29 | Cc1ccc(-c2c([C@H](OC(C)(C)C)C(=O)O)c(C)c3c4c2cc(C(=O)N(C)C)n4CCN3C)cc1 [Compound I-040] | 67 | 
30 | Cc1ccc(-c2c([C@H](OC(C)(C)C)C(=O)O)c(C)c3c4c2cc(-c2nnc(C)o2)n4CCN3C)cc1 [Compound I-041] | 4.6 | 
31 | Cc1ccc(-c2c([C@H](OC(C)(C)C)C(=O)O)c(C)c3c4c2cc(C(N)=O)n4CCN3C)cc1 [Compound I-044] | 44 | 
